Laboratory results published in patent US8431563B2 (priority 2010, dated 2013).
Like-named read-outs stand apart in the source and are kept apart here.

Columns and labels:
[1] = molecular target: T1, GKRP (Glucokinase Regulatory Protein) with human His-hepatic GK (Homo sapiens, UniProt Q14397); test: biochemical; details: 13C-glucose-6-phosphate formation, 280 nM GKRP (10×), 30 nM GK (5×)
T1 sequence (Q14397 1-625): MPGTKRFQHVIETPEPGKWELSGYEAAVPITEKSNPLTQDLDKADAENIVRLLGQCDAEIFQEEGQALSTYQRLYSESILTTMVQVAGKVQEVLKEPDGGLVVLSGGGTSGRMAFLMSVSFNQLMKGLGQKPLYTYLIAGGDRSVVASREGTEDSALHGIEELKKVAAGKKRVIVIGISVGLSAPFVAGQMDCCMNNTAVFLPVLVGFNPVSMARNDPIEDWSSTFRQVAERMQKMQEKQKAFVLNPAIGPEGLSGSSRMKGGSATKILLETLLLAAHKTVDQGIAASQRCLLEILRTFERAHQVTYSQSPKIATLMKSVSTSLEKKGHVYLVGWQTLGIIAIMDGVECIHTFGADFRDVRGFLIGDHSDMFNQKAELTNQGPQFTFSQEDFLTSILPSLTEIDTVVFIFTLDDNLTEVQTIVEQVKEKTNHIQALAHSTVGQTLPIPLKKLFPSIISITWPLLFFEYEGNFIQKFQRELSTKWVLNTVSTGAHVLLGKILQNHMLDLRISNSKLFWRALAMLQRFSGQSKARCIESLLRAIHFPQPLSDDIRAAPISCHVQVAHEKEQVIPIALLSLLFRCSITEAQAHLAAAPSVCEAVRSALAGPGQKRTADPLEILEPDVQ
Method: GKRP LC MS/MS-2 Biochemical Assay
This assay is used to directly measure the formation of ^13C-glucose-6-phosphate from ^13C-glucose by LC MS/MS. Begin by preparing the following solutions: Compound Buffer (CB): 50 mM Tris, pH 7.5/4 mM MgCl2/6% DMSO/fresh 10 mM DTT from 1M frozen stock. Enzyme Buffer (EB): 50 mM Tris, pH 7.5/4 mM MgCl2/6% DMSO/fresh 0.1% BSA/fresh 0.01% Brij-35 (10% BSA and 1% Brij-35 stock). GK (Glucokinase) Working Stock (5×): Dilute human His-hepatic GK to 30 nM in EB buffer. […] After 30 minutes add 10 μl of GK Working Stock (5×). Re-seal the plate and incubate for another 30 minutes at room temperature while mixing. After the second 30 minutes, stop the reaction by the addition of 50 μl of 100% acetonitrile, seal, and mix for 5-10 minutes. Run 10 μl of this sample through the LC MS/MS (API 3200, Applied Biosystems, Carlsbad, Calif.).

[2] = molecular target: T2, interaction between glucokinase (GK) and glucokinase regulatory protein (GKRP) (Homo sapiens, UniProt Q14397); test: biochemical; format: binding; details: avi-tagged GKRP, GK-fluorescein, AlphaScreen beads; read-out: GK-GKRP IC50 (Binding)
T2 sequence (Q14397 1-625): T1 sequence (Q14397 1-625)
Method: GK-GKRP Binding Assay Protocol
This assay is used to directly measure the interaction between glucokinase (GK) and glucokinase regulatory protein (GKRP). Begin by preparing the following solutions. Assay Buffer: 20 mM Tris, pH 7.5/0.05% BSA/1 mM DTT/1 μM sorbitol-6-phosphate. […] Combine the following reagents in a white 96-well half area plate. Pipette 14 μl of the diluted avi-tagged GKRP into each well. Add 1 μl of compound to be tested and incubate at room temperature for 20 minutes. After 20 minutes, add 5 μl of assay buffer containing 6 nM GK-fluorescein. […] Incubate in a dark room for 2 hours at room temperature. After 2 hours read the plate using an Envision plate reader (Perkin Elmer, Waltham Mass.).

[3] = read-out: GK-GKRP EC50 (LC MS/MS-2)

SMILES | EC50 ([1]; GK-GKRP EC50 (LC MS/MS-2)) [nM] | IC50 [2] [nM] | EC50 [1, 3] [nM]
Nc1ccc(S(=O)(=O)N2CCN(c3ncc(C(O)(C(F)(F)F)C(F)(F)F)cn3)[C@@H](CC3CCOCC3)C2)s1 [Example 133, 2-(2-((2S)-4-((5-amino-2-thiophenyl)sulfonyl)-2-(tetrahydro-2H-pyran-4-ylmethyl)-1-piperazinyl)-5-pyrimidinyl)-1,1,1,3,3,3-hexafluoro-2-propanol] | 59 | 47 | –
CC(O)(c1ccc(N2CCN(S(=O)(=O)c3cccs3)C[C@@H]2C[S+]([O-])c2ccc(F)cc2)cc1)C(F)(F)F (single isomer, unassigned) [Example 191 Peak#2] | – | 425 | 252
C[C@H]1CN(S(=O)(=O)c2ccc(N)s2)CCN1c1ccc(C(C)(O)C(F)(F)F)cc1 (mixture of isomers) [Example 139, 2-(4-((2S)-4-((5-amino-2-thiophenyl)sulfonyl)-2-methyl-1-piperazinyl)phenyl)-1,1,1-trifluoro-2-propanol] | – | 630 | 370
CC(O)(c1ccc(N2CCN(S(=O)(=O)c3cccs3)C[C@@H]2CN2C3COCC2C(O)C3)cc1)C(F)(F)F (stereo partly drawn) [Example 77, 8-(((2S)-4-(2-thiophenylsulfonyl)-1-(4-(2,2,2-trifluoro-1-hydroxy-1-methylethyl)phenyl)-2-piperazinyl)methyl)-3-oxa-8-azabicyclo[3.2.1]octan-6-ol (endo)] | – | 28 | 31
Nc1ccc(S(=O)(=O)N2CCN(c3ccc(C(O)(C(F)(F)F)C(F)(F)F)cc3)[C@@H](CC3CCOCC3)C2)cn1 [Example 126, 2-(4-((2S)-4-((6-amino-3-pyridinyl)sulfonyl)-2-(tetrahydro-2H-pyran-4-ylmethyl)-1-piperazinyl)phenyl)-1,1,1,3,3,3-hexafluoro-2-propanol] | – | 22 | 37
CC(O)(c1ccc(N2CCN(S(=O)(=O)c3cccs3)C[C@@H]2CN(C2COC2)S(C)(=O)=O)cc1)C(F)(F)F (mixture of isomers) [Example 207, N-3-oxetanyl-N-(((2R)-4-(2-thiophenylsulfonyl)-1-(4-(2,2,2-trifluoro-1-hydroxy-1-methylethyl)phenyl)-2-piperazinyl)methyl)methanesulfonamide] | – | 241 | 257
CC(O)(c1ccc(N2CCN(S(=O)(=O)c3cccs3)C[C@@H]2CNC2COC2)cc1)C(F)(F)F (mixture of isomers) [Example 206, 1,1,1-trifluoro-2-(4-((2S)-2-((3-oxetanylamino)methyl)-4-(2-thiophenylsulfonyl)-1-piperazinyl)phenyl)-2-propanol] | – | 248 | 343
C[C@H]1CN(S(=O)(=O)c2ccc(N)nc2)CCN1c1ccc(C(O)(C(F)(F)F)C(F)(F)F)cc1 [Example 92, 2-(4-((2S)-4-((6-amino-3-pyridinyl)sulfonyl)-2-methyl-1-piperazinyl)phenyl)-1,1,1,3,3,3-hexafluoro-2-propanol] | – | 205 | 233
CC(=O)N(C[C@H]1CN(S(=O)(=O)c2cccs2)CCN1c1ccc(C(C)(O)C(F)(F)F)cc1)c1ccccc1 (mixture of isomers) [Example 224, N-phenyl-N-(((2S)-4-(2-thiophenylsulfonyl)-1-(4-(2,2,2-trifluoro-1-hydroxy-1-methylethyl)phenyl)-2-piperazinyl)methyl)acetamide] | – | 8 | 27
CC(O)(c1ccc(N2CCN(S(=O)(=O)c3cccs3)C[C@@H]2CN(C2CC2)S(C)(=O)=O)cc1)C(F)(F)F (mixture of isomers) [Example 200, N-cyclopropyl-N-(((2R)-4-(2-thiophenylsulfonyl)-1-(4-(2,2,2-trifluoro-1-hydroxy-1-methylethyl)phenyl)-2-piperazinyl)methyl)methanesulfonamide] | – | 26 | 39
